Active and inactive are the calls of the source. The rule behind the calls is not given here.
Columns and labels:
Jurkat [1] = experiment: Downregulation of Aiolos level in human Jurkat cells at 30 nM measured after 4 hrs by DIA-Based Proteomic analysis; assay type: functional, cell-based
Mus musculus [2] = experiment: Anti-inflammatory activity in imiquimod-induced female BALB/c mouse psoriasis model assessed as reduction in acanthosis at 5 mg/kg, ip administered daily topically for 6 days by H and E staining based analysis; assay type: functional, organism-based; conditions: time 6.0 day
Mus musculus [3] = organism: Mus musculus; experiment: Anti-inflammatory activity in imiquimod-induced female BALB/c mouse psoriasis model assessed as reduction in INF-alpha expression in skin by ELISA method; assay type: functional, organism-based
[4] = biological target: T1, Protein cereblon/Non-receptor tyrosine-protein kinase TYK2 (Homo sapiens, UniProt P29597+Q96SW2); experiment: PROTAC activity at CRBN/TYK2 in human Jurkat cells assessed as induction of degradation of TYK2 at 10 nM preincubated with bortezomib for 2 hrs followed by compound addition and measured after 10 hrs by Western blot analysis; assay type: cell-based
Target sequence in this assay (P29597 whole entry, looked up, the tested form may be a part): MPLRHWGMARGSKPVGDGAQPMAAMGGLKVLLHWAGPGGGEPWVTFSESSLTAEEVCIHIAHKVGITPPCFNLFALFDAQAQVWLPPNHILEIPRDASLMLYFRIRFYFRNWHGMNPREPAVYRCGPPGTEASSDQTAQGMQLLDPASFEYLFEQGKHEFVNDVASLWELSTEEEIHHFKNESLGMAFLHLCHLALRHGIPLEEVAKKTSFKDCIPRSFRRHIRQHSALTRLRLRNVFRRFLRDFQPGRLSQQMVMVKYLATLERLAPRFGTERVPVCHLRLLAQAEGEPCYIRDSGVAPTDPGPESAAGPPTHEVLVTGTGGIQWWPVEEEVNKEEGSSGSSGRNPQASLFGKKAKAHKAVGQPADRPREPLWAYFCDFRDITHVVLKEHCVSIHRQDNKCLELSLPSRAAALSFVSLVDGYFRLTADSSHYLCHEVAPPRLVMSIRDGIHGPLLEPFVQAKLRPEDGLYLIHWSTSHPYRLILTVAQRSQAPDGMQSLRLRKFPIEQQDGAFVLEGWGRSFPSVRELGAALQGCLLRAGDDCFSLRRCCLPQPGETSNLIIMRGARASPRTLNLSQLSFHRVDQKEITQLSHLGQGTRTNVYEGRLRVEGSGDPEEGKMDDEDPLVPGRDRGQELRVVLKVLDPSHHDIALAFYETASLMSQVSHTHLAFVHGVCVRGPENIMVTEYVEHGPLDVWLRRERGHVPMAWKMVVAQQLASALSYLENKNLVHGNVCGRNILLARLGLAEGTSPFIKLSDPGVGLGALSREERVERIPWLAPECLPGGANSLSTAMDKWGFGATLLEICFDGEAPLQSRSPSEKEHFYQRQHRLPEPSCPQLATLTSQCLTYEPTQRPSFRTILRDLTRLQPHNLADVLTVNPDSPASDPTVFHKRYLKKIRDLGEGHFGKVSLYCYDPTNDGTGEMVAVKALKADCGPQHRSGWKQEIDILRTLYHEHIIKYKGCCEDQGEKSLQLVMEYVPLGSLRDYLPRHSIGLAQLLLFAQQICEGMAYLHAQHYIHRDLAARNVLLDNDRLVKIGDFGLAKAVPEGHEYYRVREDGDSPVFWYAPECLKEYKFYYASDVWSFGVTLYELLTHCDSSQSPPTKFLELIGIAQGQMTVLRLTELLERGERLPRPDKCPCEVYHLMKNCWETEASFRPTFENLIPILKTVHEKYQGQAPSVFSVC
Target sequence in this assay (Q96SW2 whole entry, looked up, the tested form may be a part): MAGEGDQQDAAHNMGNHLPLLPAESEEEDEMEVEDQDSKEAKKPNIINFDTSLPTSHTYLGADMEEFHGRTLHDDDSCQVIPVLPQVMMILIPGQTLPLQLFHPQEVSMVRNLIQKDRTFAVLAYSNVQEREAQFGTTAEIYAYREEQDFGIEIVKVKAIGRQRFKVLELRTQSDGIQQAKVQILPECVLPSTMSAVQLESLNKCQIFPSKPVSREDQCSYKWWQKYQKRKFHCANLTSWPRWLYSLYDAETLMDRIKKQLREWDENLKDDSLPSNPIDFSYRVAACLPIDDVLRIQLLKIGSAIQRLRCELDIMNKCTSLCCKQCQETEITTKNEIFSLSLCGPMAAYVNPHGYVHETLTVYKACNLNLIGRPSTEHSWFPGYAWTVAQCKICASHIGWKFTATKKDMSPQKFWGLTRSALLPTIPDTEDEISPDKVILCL

[5] = biological target: Tyrosine-protein kinase JAK1 (Homo sapiens, UniProt P23458); experiment: Displacement of fluorophore-labeled probe from JAK1 JH2 domain (unknown origin) by HTRF assay
[6] = biological target: T1, Protein cereblon/Non-receptor tyrosine-protein kinase TYK2; experiment: PROTAC activity at CRBN/TYK2 in human Jurkat cells assessed as induction of degradation of TYK2 at 10 nM measured after 10 to 36 hrs by Western blot analysis relative to control; assay type: cell-based; conditions: time 10-36 hrs
Target sequence in this assay (P29597 whole entry, looked up, the tested form may be a part): as the sequence (P29597 whole entry, looked up, the tested form may be a part) above
Target sequence in this assay (Q96SW2 whole entry, looked up, the tested form may be a part): as the sequence (Q96SW2 whole entry, looked up, the tested form may be a part) above

Mus musculus [7] = organism: Mus musculus; experiment: Anti-inflammatory activity in imiquimod-induced female BALB/c mouse psoriasis model assessed as reduction in IL-17 expression in skin by ELISA method; assay type: functional, organism-based
[8] = Inhibition of TYK2 dependent STAT3 phosphorylation in IL-12 stimulated human PBMC cells preincubated for 60 mins followed by IL-12 stimulation and measured after 60 mins by FACS assay; assay type: cell-based
Mus musculus [9] = experiment: Anti-inflammatory activity in imiquimod-induced female BALB/c mouse psoriasis model assessed as reduction in IL-23 expression in skin at 15 mg/kg, ip administered daily topically for 6 days by ELISA method; assay type: functional, organism-based; conditions: time 6.0 day
[10] = biological target: T1, Protein cereblon/Non-receptor tyrosine-protein kinase TYK2; experiment: PROTAC activity at CRBN/TYK2 in human Jurkat cells assessed as induction of degradation of TYK2 measured after 10 hrs by Western blot analysis; assay type: cell-based
Target sequence in this assay (P29597 whole entry, the tested form may be a part): as the sequence (P29597 whole entry, looked up, the tested form may be a part) above
Target sequence in this assay (Q96SW2 whole entry, the tested form may be a part): as the sequence (Q96SW2 whole entry, looked up, the tested form may be a part) above

Mus musculus [11] = organism: Mus musculus; experiment: Anti-inflammatory activity in imiquimod-induced female BALB/c mouse psoriasis model assessed as reduction in TYK2 protein expression by Immunohistochemical analysis; assay type: functional, organism-based
[12] = biological target: T1, Protein cereblon/Non-receptor tyrosine-protein kinase TYK2; experiment: PROTAC activity at CRBN/TYK2 in human Jurkat cells assessed as induction of degradation of TYK2 at 100 nM measured after 10 hrs by Western blot analysis relative to control; assay type: cell-based
Target sequence in this assay (P29597 whole entry, looked up, the tested form may be a part): as the sequence (P29597 whole entry, looked up, the tested form may be a part) above
Target sequence in this assay (Q96SW2 whole entry, looked up, the tested form may be a part): as the sequence (Q96SW2 whole entry, looked up, the tested form may be a part) above

Mus musculus [13] = organism: Mus musculus; experiment: Anti-inflammatory activity in imiquimod-induced female BALB/c mouse psoriasis model assessed as reduction in IL-17 expression in serum by ELISA method; assay type: functional, organism-based
[14] = AUC (0 to infinity) in male ICR mouse at 5 mg/kg, ip measured up to 24 hrs by LC-MS/MS analysis; assay type: ADME, organism-based; conditions: in vivo
Mus musculus [15] = organism: Mus musculus; experiment: Anti-inflammatory activity in imiquimod-induced female BALB/c mouse psoriasis model assessed as reduction in IL-23 expression in serum by ELISA method; assay type: functional, organism-based
Jurkat [16] = experiment: Downregulation of JAK1 protein level in human Jurkat cells at 1 to 100 nM measured after 10 hrs by Western blot analysis; assay type: functional, cell-based; conditions: dose 1-100 nM
[17] = biological target: T1, Protein cereblon/Non-receptor tyrosine-protein kinase TYK2; experiment: PROTAC activity at CRBN/TYK2 in human Jurkat cells assessed as induction of degradation of TYK2 at 10 nM measured after 10 hrs by Western blot analysis relative to control; assay type: cell-based
Target sequence in this assay (P29597 whole entry, looked up, the tested form may be a part): as the sequence (P29597 whole entry, looked up, the tested form may be a part) above
Target sequence in this assay (Q96SW2 whole entry, looked up, the tested form may be a part): as the sequence (Q96SW2 whole entry, looked up, the tested form may be a part) above

Jurkat [18] = experiment: Downregulation of TYK2 protein level in human Jurkat cells at 1 to 100 nM measured after 10 hrs by Western blot analysis; assay type: functional, cell-based; conditions: dose 1-100 nM
Mus musculus [19] = experiment: Anti-inflammatory activity in imiquimod-induced female BALB/c mouse psoriasis model assessed as reduction in micro abscess at 5 mg/kg, ip administered daily topically for 6 days by H and E staining based analysis; assay type: functional, organism-based; conditions: time 6.0 day
[20] = Cmax in male ICR mouse at 5 mg/kg, ip measured up to 24 hrs by LC-MS/MS analysis; assay type: ADME, organism-based; conditions: in vivo
[21] = biological target: T1, Protein cereblon/Non-receptor tyrosine-protein kinase TYK2; experiment: PROTAC activity at CRBN/TYK2 in human Jurkat cells assessed as induction of degradation of TYK2 at 10 nM preincubated for 24 hrs followed by compound washout and followed by incubation in compound free medium by Western blot analysis; assay type: cell-based
Target sequence in this assay (P29597 whole entry, looked up, the tested form may be a part): as the sequence (P29597 whole entry, looked up, the tested form may be a part) above
Target sequence in this assay (Q96SW2 whole entry, looked up, the tested form may be a part): as the sequence (Q96SW2 whole entry, looked up, the tested form may be a part) above

[22] = biological target: Non-receptor tyrosine-protein kinase TYK2 (Homo sapiens, UniProt P29597); experiment: Displacement of fluorophore-labeled probe from TYK2 JH2 domain (unknown origin) by HTRF assay
Mus musculus [23] = experiment: Anti-inflammatory activity in imiquimod-induced female BALB/c mouse psoriasis model assessed as reduction in concomitant splenomegaly at 5 mg/kg, ip administered daily topically for 6 days; assay type: functional, organism-based; conditions: time 6.0 day
[24] = Selectivity ratio of IC50 for displacement of fluorophore-labeled probe from JAK2 JH2 domain (unknown origin) to IC50 for displacement of fluorophore-labeled probe from TYK2 JH2 domain (unknown origin)
Jurkat [25] = experiment: Downregulation of JAK2 protein level in human Jurkat cells at 1 to 100 nM measured after 10 hrs by Western blot analysis; assay type: functional, cell-based; conditions: dose 1-100 nM
[26] = MRT (0 to t) in male ICR mouse at 5 mg/kg, ip measured up to 24 hrs by LC-MS/MS analysis; assay type: ADME, organism-based; conditions: in vivo
Mus musculus [27] = experiment: Anti-inflammatory activity in imiquimod-induced female BALB/c mouse psoriasis model assessed as reduction in inflammatory infiltration at 5 mg/kg, ip administered daily topically for 6 days by H and E staining based analysis; assay type: functional, organism-based; conditions: time 6.0 day
Jurkat [28] = experiment: Downregulation of TYK2 protein level in human Jurkat cells at 30 nM measured after 4 hrs by DIA-Based Proteomic analysis; assay type: functional, cell-based
Mus musculus [29] = experiment: Anti-inflammatory activity in imiquimod-induced female BALB/c mouse psoriasis model assessed as reduction in IL-17 expression in skin at 15 mg/kg, ip administered daily topically for 6 days by ELISA method; assay type: functional, organism-based; conditions: time 6.0 day
[30] = Inhibition of IFN-alpha activated TYK2 dependent STAT3 phosphorylation in human Jurkat cells incubated for 10 hrs by Western blot analysis; assay type: cell-based
[31] = Metabolic stability in mouse liver microsomes assessed as half life measured up to 120 mins by LC-MS/MS analysis; assay type: ADME, Microsome
[32] = biological target: T1, Protein cereblon/Non-receptor tyrosine-protein kinase TYK2; experiment: PROTAC activity at CRBN/TYK2 in human Jurkat cells assessed as induction of degradation of TYK2 at 10 nM preincubated with MG132 for 2 hrs followed by compound addition and measured after 10 hrs by Western blot analysis; assay type: cell-based
Target sequence in this assay (P29597 whole entry, looked up, the tested form may be a part): as the sequence (P29597 whole entry, looked up, the tested form may be a part) above
Target sequence in this assay (Q96SW2 whole entry, looked up, the tested form may be a part): as the sequence (Q96SW2 whole entry, looked up, the tested form may be a part) above

[33] = biological target: T1, Protein cereblon/Non-receptor tyrosine-protein kinase TYK2; experiment: PROTAC activity at CRBN/TYK2 in human Jurkat cells assessed as induction of degradation of TYK2 at 10 nM preincubated with cycloheximide for 2 hrs followed by compound addition and measured after 10 hrs by Western blot analysis; assay type: cell-based
Mus musculus [34] = organism: Mus musculus; experiment: Anti-inflammatory activity in imiquimod-induced female BALB/c mouse psoriasis model assessed as reduction in IL-23 expression in skin by ELISA method; assay type: functional, organism-based
Jurkat [35] = experiment: Effect on JAK3 protein level in human Jurkat cells at 30 nM measured after 4 hrs by DIA-Based Proteomic analysis; assay type: functional, cell-based
[36] = Tmax in male ICR mouse at 5 mg/kg, ip measured up to 24 hrs by LC-MS/MS analysis; assay type: ADME, organism-based; conditions: in vivo

Sequence of Tyrosine-protein kinase JAK1 (P23458 whole entry, the tested form may be a part): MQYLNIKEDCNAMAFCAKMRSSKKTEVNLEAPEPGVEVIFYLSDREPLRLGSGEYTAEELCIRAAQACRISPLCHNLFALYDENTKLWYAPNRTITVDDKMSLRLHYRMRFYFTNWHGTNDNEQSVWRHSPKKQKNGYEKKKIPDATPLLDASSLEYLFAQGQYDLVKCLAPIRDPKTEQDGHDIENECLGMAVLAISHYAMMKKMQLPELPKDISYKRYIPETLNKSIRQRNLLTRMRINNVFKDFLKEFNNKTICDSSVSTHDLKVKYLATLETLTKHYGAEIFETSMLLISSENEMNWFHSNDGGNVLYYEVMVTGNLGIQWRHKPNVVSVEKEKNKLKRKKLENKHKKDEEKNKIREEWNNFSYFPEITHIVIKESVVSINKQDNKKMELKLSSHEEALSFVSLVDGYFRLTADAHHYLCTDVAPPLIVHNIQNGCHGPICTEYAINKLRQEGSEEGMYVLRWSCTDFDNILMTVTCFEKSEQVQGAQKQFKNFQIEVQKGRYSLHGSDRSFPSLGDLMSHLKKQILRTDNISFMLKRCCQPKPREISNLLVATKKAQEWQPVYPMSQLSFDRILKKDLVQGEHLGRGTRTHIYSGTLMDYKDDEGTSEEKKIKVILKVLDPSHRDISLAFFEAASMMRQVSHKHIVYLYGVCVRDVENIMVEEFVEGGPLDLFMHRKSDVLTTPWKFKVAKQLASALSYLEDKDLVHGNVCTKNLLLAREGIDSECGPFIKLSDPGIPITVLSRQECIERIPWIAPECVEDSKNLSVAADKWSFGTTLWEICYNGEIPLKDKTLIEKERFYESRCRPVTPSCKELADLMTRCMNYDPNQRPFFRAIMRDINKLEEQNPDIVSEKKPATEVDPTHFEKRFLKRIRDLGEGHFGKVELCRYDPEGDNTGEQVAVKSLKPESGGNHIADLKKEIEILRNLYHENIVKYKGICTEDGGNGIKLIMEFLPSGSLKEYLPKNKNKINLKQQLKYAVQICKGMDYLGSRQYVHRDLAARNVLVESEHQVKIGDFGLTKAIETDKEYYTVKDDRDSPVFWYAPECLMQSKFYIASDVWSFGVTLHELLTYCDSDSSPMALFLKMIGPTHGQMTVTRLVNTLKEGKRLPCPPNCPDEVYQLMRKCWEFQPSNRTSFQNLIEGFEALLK
Sequence of Non-receptor tyrosine-protein kinase TYK2 (P29597 whole entry, the tested form may be a part): as the sequence (P29597 whole entry, looked up, the tested form may be a part) above

Q: With `CNC(=O)c1cnc(Nc2ccc(C(=O)NC3CCC(Nc4ccc5c(c4)C(=O)N(C4CCC(=O)NC4=O)C5=O)CC3)cn2)cc1Nc1cccc(-c2ncc(F)cn2)c1OC` (stereo unspecified) as the molecule, how does the Activity (Jurkat [1]) read?
A: inactive

Q: What about the Activity (Mus musculus [2]) of the same molecule?
A: Active

Q: And the Activity (Mus musculus [3])?
A: Active

Q: And the Activity [4]?
A: inactive

Q: What about the IC50 [5] of the same molecule?
A: > 100 nM

Q: What about the Activity [6] of the same molecule?
A: 90%

Q: What about the Activity (Mus musculus [7]) of the same molecule?
A: Active

Q: And the IC50 [8]?
A: 8.6 nM

Q: What about the Activity (Mus musculus [9]) of the same molecule?
A: Active

Q: What about the DC50 [10] of the same molecule?
A: 0.42 nM

Q: And the Activity (Mus musculus [11])?
A: Active

Q: What about the Activity [12] of the same molecule?
A: 90%

Q: What about the Activity (Mus musculus [13]) of the same molecule?
A: Active

Q: And the AUC(0-inf) [14]?
A: 4780 ng·h/mL

Q: What about the Activity (Mus musculus [15]) of the same molecule?
A: Active

Q: And the Activity (Jurkat [16])?
A: Active

Q: And the Activity [17]?
A: 96%

Q: And the Activity (Jurkat [18])?
A: Active

Q: And the Activity (Mus musculus [19])?
A: Active

Q: What about the Cmax [20] of the same molecule?
A: 1300 ng/mL

Q: What about the Activity [21] of the same molecule?
A: inactive

Q: What about the IC50 [22] of the same molecule?
A: 1.2 nM

Q: What about the Activity (Mus musculus [23]) of the same molecule?
A: Active

Q: What about the Ratio IC50 [24] of the same molecule?
A: > 80

Q: And the Activity (Jurkat [25])?
A: Active

Q: And the MRT last at 24 h [26]?
A: 4.1 h

Q: What about the Activity (Mus musculus [27]) of the same molecule?
A: Active

Q: What about the Activity (Jurkat [28]) of the same molecule?
A: Active

Q: What about the Activity (Mus musculus [29]) of the same molecule?
A: Active

Q: What about the IC50 [30] of the same molecule?
A: 6.7 nM

Q: And the half-life [31]?
A: 1.68 h

Q: And the Activity [32]?
A: inactive

Q: And the Activity [33]?
A: Active

Q: And the Activity (Mus musculus [34])?
A: Active

Q: What about the Activity (Jurkat [35]) of the same molecule?
A: inactive

Q: What about the Tmax [36] of the same molecule?
A: 0.4 h
